Where “and” joins values, the source holds several entries; their conditions need not be identical. Equal values may be shown once. Some results are limits rather than exact numbers.

In assay [1] the test system is Salmonella. Description: Salmonella in the absorbent in trays after 11 days (Example 2). Format: cell-based. Particulars: about 4° C. How it is done: (§1) The absorbent in the trays was analyzed for aerobic plate count and salmonella levels at the conclusion of the study. The data was obtained on day 11.
The test system of assay [2] is Salmonella sp. Description: Survival of Salmonella on sliced tomatoes with low levels of antimicrobials at 4° C. (Example 3). Format: cell-based. Particulars: for Survival of Salmonella on sliced tomatoes, 5 days: about 4° C. How it is done:
The effect of low levels of specified antimicrobials on survival of Salmonella sp. in packaged sliced tomato under refrigeration (4±1° C.) was determined. The volatile antimicrobials tested were chlorine dioxide, allyl isothiocyanate cyclodextrine, origanum cyclodextrine, cinnamaldehyde cyclodextrine and basil cyclodextrine.
Slices were inoculated with 5 Salmonella strains that included S. poona (cantaloupe associated outbreak), S. stanley H 1256 (Alfafa sprout associated outbreak), S. baildon (tomato associated outbreak), S. typhimurium DT 104 (multiple antibiotic resistant) and S. montevideo (tomato associated outbreak). […] The inoculated packages were stored at 4±1° C. for 10 days.
(§2) Inoculated and uninoculated tomato slices were analyzed at 0, 5 and 10 days. […] The plates were incubated at 37° C. for 18 hr and typical Salmonella colonies counted. The absorbent (fluid in case of Control 1 trays) was analyzed for Salmonella and Aerobic Plate Count by plating appropriate dilution of the gel/fluid on MacConkey agar plates and Plate Count Agar.

The subject of assay [3] is Salmonella. Description: Location of viable Salmonella on tomato slices after storage with antimicrobials. Format: cell-based. Particulars: about 4° C.; for viable Salmonella in Portion 1: Table 5. The protocol:
(§3) Slices were inoculated with 5 Salmonella strains that included S. poona (cantaloupe associated outbreak), S. stanley H 1256 (Alfafa sprout associated outbreak), S. baildon (tomato associated outbreak), S. typhimurium DT 104 (multiple antibiotic resistant) and S. montevideo (tomato associated outbreak). […] Then, the specified volatile antimicrobials were pipetted into the wells of each package. The inoculated packages were stored at 4±1° C. for 10 days.
(§4) Inoculated and uninoculated tomato slices were analyzed at days 0 and 10. […] The diluted samples were plated on MacCkonkey agar plates. The plates were incubated at 37° C. for 18 hr and typical Salmonella colonies counted.
Tomato slices were inoculated with Salmonella between slices and placed in trays. […] The day 0 data (data is taken the day after inoculation) presented in Table 4 indicates no difference in the location of the inoculum between the Control 1 trays and the Control 2 tray at “0” time. After 10 days of storage, slices still had Salmonella distributed throughout; however, the distribution differed between Control 1 trays and Control 2 trays. The Salmonella in the Control 2 trays were located primarily at the top most portion of the slice (average of 72% of Salmonella on the top skin), whereas the Control 1 trays had high numbers at the bottom of the slice (average of 41% in bottom two portions). The total number of Salmonella increased on the slices to a similar extent for both tray types (Table 1).

The test system of assay [4] is Salmonella. In words: Salmonella counts in the absorbent/juice from trays after 10 days (Example 3). Format: cell-based. Particulars: about 4° C. How it is done: as §2
The test system of assay [5] is aerobic microflora. Description: Aerobic plate count in the absorbent/juice from trays after 10 days (Example 3). Format: cell-based. Particulars: about 4° C. The protocol:
as §2

Assay [6] relates to Salmonella sp. In words: Survival of Salmonella on sliced tomato packaged with volatile antimicrobials at about 4° C. (Example 2). Particulars: for effectiveness against Salmonella on slices: 10 days, origanum 150 μl, basil 75 μl, chlorine dioxide in absorbent or as spray, cyclodextrine forms high level, cinnamaldehyde 35 μl with spray. Format: cell-based. How it is done: The effect of volatile antimicrobials on the survival of Salmonella sp. in packaged sliced tomato was determined. The antimicrobials tested were origanum oil, basil oil, cyclodextrine cinnamaldehyde, chlorine dioxide as spray and in absorbent, and allyl isothiocyanate in cyclodextrine. The combinations of cinnamaldehyde with chlorine dioxide and allyl isothiocyanate in cyclodextrine with cinnamaldehyde were also tested.
as §3, §4

Assay [7] has as its system aerobic microflora. In words: Aerobic Plate Count of the absorbent in trays after 11 days (Example 2). Format: cell-based. Particulars: for growth inhibition (APC) in the absorbent over the control absorbent: about 4° C. How it is done:
as §1

The subject of another assay is Salmonella spp. Description: Survival of Salmonella spp. in packaged sliced tomato with volatile oils at about 11° C. Particulars: for Salmonella on sliced tomatoes, Day 9: 9 days at about 11° C. Format: cell-based. The source says:
The effect of origanum, basil, and cinnamaldehyde oils on the survival of Salmonella sp. in packaged sliced tomato was studied. Five Salmonella serotypes were used namely, S. poona (cantaloupe associated outbreak), S. stanley H 1256 (Alfa Alfa sprout associated outbreak), S. baildon (tomato associated outbreak), S. typhimurium DT 104 and S. montevideo (tomato associated outbreak). Five μl of the cocktail was inoculated on top of three tomato slices in package to have a target inoculum of 5×10^6 CFU/slice. Then, 12, 35, and 75 μl of each volatile antimicrobial agent were pipetted into the wells of the separate packages. The packages were stored at 11° C. for 9 days. After 8 days of incubation mold was observed on some slices in some packages.
The inoculated tomato slices were analyzed at day 0 and 9. Each slice was mixed with 90 ml 0.1% peptone water and stomached for 1 min. Next, 1 ml of the stomached material was diluted in 9 ml 0.1% peptone and spiral plated on MacCkonkey agar plates. The plates were incubated at 37° C. for 18 hr.
The data was analyzed by the General Linear Method using SAS 9.1. […] All results are for Day 9 except for the control. All day 0 counts were the same as the control. […] The other results include both the volatile antimicrobial agent and absorbent materials.

The test system of a further assay is yeast and mold. Particulars: 4° C., up to 10 days.
For assay [8], the system named is pathogenic and aerobic microorganisms.

Take `[O][Cl+][O-]` [Chlorine Dioxide, chlorine dioxide]: the “Salmonella in the absorbent in trays (Table 8)” value in the assay on Salmonella [1] (chlorine dioxide, amount not given) came out at 1.40 Log CFU/ml. In the assay on Salmonella [1] (spray), the “Salmonella in the absorbent in trays (Table 9)” value was found to be 2.21 Log CFU/ml. Further, the “Survival of Salmonella on sliced tomatoes, 5 days” value is given as 6.32 Log CFU/g in the assay with Salmonella sp. [2] (0.024 g per tray); 5.61 Log CFU/g with Salmonella sp. [2] (0.052 g per tray); 5.90 Log CFU/g in the assay on Salmonella sp. [2] (0.112 g per tray); 5.65 Log CFU/g in the assay with Salmonella sp. [2] (0.25 g per tray); 5.96 Log CFU/g with Salmonella sp. [2] (0.4 g per tray). For the same compound, the “Survival of Salmonella on sliced tomatoes, 10 days” value is on record as 5.89 Log CFU/g in the assay on Salmonella sp. [2] (10 days, 4° C., 0.024 g per tray); 5.65 Log CFU/g in the assay with Salmonella sp. [2] (10 days, 4° C., 0.052 g per tray); 5.42 Log CFU/g in the assay with Salmonella sp. [2] (10 days, 4° C., 0.112 g per tray); 5.32 Log CFU/g in the assay on Salmonella sp. [2] (10 days, 4° C., 0.25 g per tray); 5.15 Log CFU/g in the assay with Salmonella sp. [2] (10 days, 4° C., 0.4 g per tray). In addition, the “effect on Salmonella on tomato slices” value in the assay on Salmonella sp. [2] (10 days, 4° C., added to absorbent) is on record as “significantly reduced levels”. Also, the “viable Salmonella in Portion 1 (top portion of skin)” value in the assay on Salmonella [3] (Table 4, Day 10, chlorine dioxide, amount not given) was 70 % of total survivors and 69 % of total survivors and 81 % of total survivors. Besides, in the assay with Salmonella [3] (Day 0, spray, listed as Chlorine Dioxide Spray), the “viable Salmonella in Portion 1” value is 56 % of total survivors and 55 % of total survivors and 79 % of total survivors. Besides, the “Salmonella in the absorbent/juice” value in the assay with Salmonella [4] (0.024 g per tray) is on record as 3.26 Log CFU/g; in the assay with Salmonella [4] (0.052 g per tray), 4.39 Log CFU/g; with Salmonella [4] (0.112 g per tray) it was 4.43 Log CFU/g; in the assay on Salmonella [4] (0.4 g per tray), 3.77 Log CFU/g. Moreover, the “killing of Salmonella that dripped into the absorbent” value in the assay with Salmonella [4] (AITC at 36) is recorded as “reduced the pathogen numbers”. The “Aerobic Plate Count in the absorbent/juice” value in the assay with aerobic microflora [5] (0.024 g per tray) was less than 2.3 Log CFU/g; in the assay on aerobic microflora [5] (0.052 g per tray), 4.62 Log CFU/g; in the assay with aerobic microflora [5] (0.112 g per tray) it was 5.1 Log CFU/g; in the assay with aerobic microflora [5] (0.25 g per tray), less than 2.3 Log CFU/g; with aerobic microflora [5] (0.4 g per tray) it was less than 2.3 Log CFU/g. Further, the “effectiveness against Salmonella on slices” value is “most effective” in the assay with Salmonella sp. [6] and “little effect” with Salmonella sp. [6] (listed as Chlorine dioxide spray). For the same compound, the “Survival of Salmonella on sliced tomatoes (Table 2)” value in the assay on Salmonella sp. [6] (Day 0) was 4.88 Log CFU/Slice; in the assay on Salmonella sp. [6] (Day 10, chlorine dioxide in absorbent, amount not given), 4.32 Log CFU/Slice. Moreover, the “Survival of Salmonella on sliced tomatoes (Table 3)” value is given as 5.27^bcd Log CFU/Slice with Salmonella sp. [6] (Day 0, spray 2.54 ml/tray) and 5.17^cde Log CFU/Slice in the assay with Salmonella sp. [6] (Day 10, spray 2.54 ml/tray). Further, in the assay with aerobic microflora [7] (4° C., chlorine dioxide, amount not given), the “Aerobic Plate Count of the absorbent in trays (Table 6)” value is 4.63 Log CFU/ml. The entries for the “growth inhibition (APC) in the absorbent over the control absorbent” value with aerobic microflora [7] and in the assay on aerobic microflora [7] (listed as chlorine dioxide spray) were “did not produce much additional growth inhibition” and “increased growth inhibition”, respectively.
On to `O=CC=Cc1ccccc1` [Cinnamaldehyde, cinnamaldehyde], for which the figures for the “Salmonella in the absorbent in trays (Table 9)” value in the assay on Salmonella [1] (35 μl) and in the assay with Salmonella [1] (75 μl) were 2.83 Log CFU/ml and 2.04 Log CFU/ml, respectively. The “Salmonella on sliced tomatoes, Day 9” value with Salmonella spp. (12 μl per package) was determined as 5.76 ± 0.34 Log CFU/Slice; with Salmonella spp. (35 μl per package) it was 5.34 ± 0.02 Log CFU/Slice. The “Salmonella population” value in the assay with Salmonella spp. (9 days, 11° C., origanum 35 or 75, basil 12, cinnamaldehyde 12 and 35 μl) is given as “declined significantly”. Besides, in the assay on Salmonella spp. (among origanum, basil and cinnamaldehyde oils), the “relative antimicrobial potency” value is “most potent antimicrobial”. For the same compound, the “viable Salmonella in Portion 1” value with Salmonella [3] (Day 10, 75 μl) was 75 % of total survivors and 73 % of total survivors and 87 % of total survivors and 91 % of total survivors. Also, the “Survival of Salmonella on sliced tomatoes (Table 3)” value with Salmonella sp. [6] (Day 10, 35 μl) was 4.78^fg Log CFU/Slice; in the assay on Salmonella sp. [6] (Day 10, 75 μl) it was 4.67^fg Log CFU/Slice. Moreover, the “growth inhibition (APC) in the absorbent over the control absorbent” value in the assay on aerobic microflora [7] is listed as “little growth inhibition”.
For the compound `O=C(O)CC(O)(CC(=O)O)C(=O)O` [Citric acid, citric acid], the “yeast and mold growth in tomato juice in gel” value with yeast and mold is “little effect”.
For `C/C=C/C=C/C(=O)[O-].[K+]` [Potassium sorbate, potassium sorbate], in assay [8], the “effectiveness of higher vs lower levels” value is reported as “marginally more effective”; the “inhibition of growth of pathogenic and aerobic microorganisms in the gel/tomato juice mixture” value was “effective at inhibiting growth”. Moreover, the “bacteria in tomato juice in gel” value with total bacterial count (4° C., up to 10 days) is on record as “kills bacteria”. Moreover, the “preservation of the gel / growth of yeast, mold and bacteria compared to the control” value in the assay with total bacterial count (10 day period, 4° C. storage temperature) was “adequate to preserve the gel”. Besides, in the assay with yeast and mold, the “yeast and mold growth in tomato juice in gel” value is on record as “allows little growth”.

The values are drawn from patent US7863350B2, “Food preservation compositions and methods of use thereof” (priority 2007, dated 2011).
